{
  "source": "patent US20210293825A1",
  "about": "“METHODS FOR PRECISION THERAPEUTIC TARGETING OF HUMAN CANCER CELL MOTILITY AND KITS THEREOF” (UNITED STATES GOVERNMENT AS REPRESENTED BY THE DEPARTMENT …, priority 2018, published 2021)",
  "key": {"[1]": {"molecular_target": "T1, phosphorylation of HSP90β (Homo sapiens, UniProt P08238+Q16543)", "T1 construct": "MAP3K6: Abnova SGK3: #PV3859; MAP3K6: #P5592; host or cells: E. coli for HSP90β and CDC37", "T1 sequence (P08238 2-724)": "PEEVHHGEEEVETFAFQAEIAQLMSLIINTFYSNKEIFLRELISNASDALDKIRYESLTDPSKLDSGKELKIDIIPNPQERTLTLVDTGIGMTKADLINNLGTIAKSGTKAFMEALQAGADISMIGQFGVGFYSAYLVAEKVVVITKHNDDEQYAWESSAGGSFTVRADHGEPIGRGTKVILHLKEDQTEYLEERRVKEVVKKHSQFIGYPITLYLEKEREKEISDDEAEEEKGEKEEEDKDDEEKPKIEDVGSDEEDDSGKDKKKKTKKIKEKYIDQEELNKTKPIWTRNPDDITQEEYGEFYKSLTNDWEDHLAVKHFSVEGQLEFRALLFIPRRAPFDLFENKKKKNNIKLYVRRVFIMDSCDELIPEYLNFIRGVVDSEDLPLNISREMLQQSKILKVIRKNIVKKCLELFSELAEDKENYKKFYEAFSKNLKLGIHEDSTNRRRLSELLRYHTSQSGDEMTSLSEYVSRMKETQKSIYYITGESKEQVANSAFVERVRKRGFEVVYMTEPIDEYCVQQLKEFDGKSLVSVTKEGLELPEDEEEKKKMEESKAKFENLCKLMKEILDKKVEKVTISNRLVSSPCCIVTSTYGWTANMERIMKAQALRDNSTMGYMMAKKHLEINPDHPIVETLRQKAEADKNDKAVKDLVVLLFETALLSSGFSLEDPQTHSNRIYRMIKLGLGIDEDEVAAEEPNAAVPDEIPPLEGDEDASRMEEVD", "T1 sequence (Q16543 whole entry)": "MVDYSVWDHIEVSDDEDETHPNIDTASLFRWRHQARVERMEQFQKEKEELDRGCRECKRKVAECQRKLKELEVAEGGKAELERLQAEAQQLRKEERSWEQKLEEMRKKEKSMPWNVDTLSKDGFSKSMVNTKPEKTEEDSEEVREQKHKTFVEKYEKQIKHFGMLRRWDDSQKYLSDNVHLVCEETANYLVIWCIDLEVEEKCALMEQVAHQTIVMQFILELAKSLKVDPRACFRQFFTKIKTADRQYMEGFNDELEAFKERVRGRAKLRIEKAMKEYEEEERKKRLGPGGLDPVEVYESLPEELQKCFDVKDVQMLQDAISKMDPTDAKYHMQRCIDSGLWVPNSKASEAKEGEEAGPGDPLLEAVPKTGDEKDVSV", "test": "HSP90β/CDC37 heterocomplex in vitro kinase assay with SGK3 and MAP3K6", "format": "biochemical", "experimental": "(§1) HEK293T cells were transfected with 1 of 420 different protein kinases, treated with 10 μM KBU2046 (N=5 replicates) or vehicle control (N=5) for three days, and LUMIER assays performed. The N=17 kinases that gave significant findings (Student's t-test <0.05) in the same direction in each of two separate experiments are depicted. Each separate treatment and kinase condition in each of two separate experiments was conducted in replicates of N=5. […] FIGS. 6c and 6d show the results of the wound healing assay. PC3 cells were transfected with siRNA targeting RAF1 (si-Raf1) or non-targeting siRNA (si-control), treated with KBU2046 or vehicle as above, and RAF1 protein measured by Western blot (c) and effects upon wound healing measured (d). […] Purified recombinant HSP90β, CDC37, and RAF1 were combined with KBU2046, as indicated, incubated in an in vitro kinase assay for the indicated times, and Western blot for RAF1-Ser^338 phosphorylation performed. FIGS. 6f and 6g show the effect on HSP90β/CDC37 heterocomplex formation and function in vitro. Purified recombinant HSP90β, CDC37, RAF1, SGK3 or MAP3K6 were combined and treated with KBU2046 or vehicle control, as indicated, incubated in an in vitro kinase assay for the indicated times, and Western blot performed, as denoted. Experiments were repeated at separate times at least once, with similar results. […]"}, "[2]": {"test_system": "human prostate, breast, colon and lung cancer cells", "test": "Single cell migration (motility) assay", "format": "cell-based", "settings": "10 μM, 3 days", "source_text": "(§2) FIG. 1a is a schematic flow of probe synthesis and development strategy. […] Values are mean±SEM of a single experiment in replicates of N=4, with similar findings in multiple separate experiments (also N=4). […] Values are mean±SEM of a single experiment in replicates of N=24, with similar findings in a separate experiment (also N=24). *Denotes Student's t test P value <0.05, compared to controls. […] Values are mean±SEM from N>2 separate experiments, each in replicates of N=3. […] Values are the mean±SD number of total, CFU-GM, CFU-GEMM or BFU-E colonies at 14 days after treatment with KBU2046, from a single experiment in replicates of N=2. […] Values are the mean±SD of a single experiment, with similar results seen in a separate experiment, both in replicates of N=2.\nCell Migration Assays. Single cell motility assays were conducted by adding 10^4 cells to 35 mm tissue culture dishes (BD Falcon) coated with collagen I (BD Biosciences), incubating at 37° C. in 5% CO2, performing time-lapse imaging using a Biostation (Nikon Instruments), tracking the path of N≥35 cells using ImageJ software and the Manual Tracker plug-in, and using Chemotaxis and Migration Tool plug-in for data analysis."}, "[3]": {"molecular_target": "T2, RAF1 with HSP90β and CDC37 (Homo sapiens, UniProt P08238+Q16543)", "T2 construct": "host or cells: E. coli for HSP90β and CDC37", "T2 sequence (P08238 whole entry)": "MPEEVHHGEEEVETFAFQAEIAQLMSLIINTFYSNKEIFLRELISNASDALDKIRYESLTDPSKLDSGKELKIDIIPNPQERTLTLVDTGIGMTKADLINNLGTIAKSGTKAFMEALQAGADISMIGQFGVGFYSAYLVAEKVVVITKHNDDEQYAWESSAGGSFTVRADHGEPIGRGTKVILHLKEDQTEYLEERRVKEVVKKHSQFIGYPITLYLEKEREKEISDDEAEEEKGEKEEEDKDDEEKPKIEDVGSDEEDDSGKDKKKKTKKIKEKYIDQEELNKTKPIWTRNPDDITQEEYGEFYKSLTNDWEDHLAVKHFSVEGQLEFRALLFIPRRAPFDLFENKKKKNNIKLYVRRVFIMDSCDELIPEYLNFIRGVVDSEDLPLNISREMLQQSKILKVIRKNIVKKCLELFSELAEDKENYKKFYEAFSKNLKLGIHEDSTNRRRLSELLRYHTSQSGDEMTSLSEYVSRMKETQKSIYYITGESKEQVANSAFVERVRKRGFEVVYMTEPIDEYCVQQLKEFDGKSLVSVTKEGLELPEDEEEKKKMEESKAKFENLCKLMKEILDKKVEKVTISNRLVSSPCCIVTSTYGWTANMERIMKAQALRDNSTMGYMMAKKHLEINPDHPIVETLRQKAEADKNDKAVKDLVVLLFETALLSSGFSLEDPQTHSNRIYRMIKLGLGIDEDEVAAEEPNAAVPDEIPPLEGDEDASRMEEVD", "T2 sequence (Q16543 whole entry)": "as the sequence (Q16543 whole entry) above", "test": "HSP90β/CDC37 heterocomplex in vitro kinase assay with RAF1", "format": "biochemical", "settings": "purified recombinant RAF1, HSP90β and CDC37", "experimental": "as §1"}, "[4]": {"test_system": "human prostate cells (PC3, PC3-M, 1532NPTX, 1542NPTX, 1532CPTX, 1542CPTX)", "test": "Boyden chamber cell invasion assay, human prostate cells", "format": "cell-based", "settings": "10 μM, 3 days; normal, primary and metastatic PCa cells", "source_text": "as §2\nCell Invasion Assays. Boyden chamber cell invasion assays were performed as previously described^9, using either denatured collagen (BD Biosciences) or type IV human collagen (BD Biosciences), with the experiments repeated, each in N=4 replicates. In some experiments, as indicated, cells were transfected with an expression plasmid, using Lipofectamine 2000™ (Invitrogen), or with siRNA, using DharmaFect Duo (Thermo Scientific) and co-transfected with β-Galactosidase (Plasmid pCMV⋅SPORT-βgal; Life Technology)."}, "[5]": {"test_system": "estrogen-responsive genes in MCF-7 cells", "test": "Induction of estrogen-responsive genes (qRT/PCR)", "format": "cell-based, human", "source_text": "as §2\nQuantitative Reverse Transcriptase Polymerase Chain Reaction. RNA was isolated and qRT/PCR was performed as described (Ding, Y. et al., J Biomol Tech 18, 321-30 (2007)), analyzed by the 2^−ΔΔCt method (Livak, K. J. et al., Methods 25, 402-8 (2001)), using primer/probes sets (ABI), HSP90α (Hs00743767_sH), HSP90β (Hs00427665_g1), trefoil factor 1 (TFF1; Hs00907239 ml), cathepsin D (CTSD; Hs00157205_m1), progesterone receptor (PGR; Hs01556702 ml) and GAPDH (Hs99999905_m1). Assays were repeated, each in replicates of N=2."}},
  "data": [
    {"molecule": "O=C1c2ccccc2OCC1c1ccc(F)cc1", "note": "(racemic) [KBU2046, (±)-3(4-fluorophenyl)chroman-4-one]", "values": [
      {"measurement": "SGK3-mediated phosphorylation of HSP90β", "setting": "[1]; MAP3K6 added", "value": "also decreases in the presence of KBU2046"},
      {"measurement": "SGK3-mediated phosphorylation of HSP90β", "setting": "[1]; SGK3 present", "value": "phosphorylation was further increased"},
      {"measurement": "inhibition of cell migration", "setting": "[2]", "value": "inhibited the migration"},
      {"measurement": "phosphorylation of RAF1 Ser338 activation motif", "setting": "[3]", "value": "decreased phosphorylation of RAF1's Ser338 activation motif"},
      {"measurement": "inhibition of cell invasion", "setting": "[4]", "value": "inhibits cell invasion with efficacy equal-to-or-greater-than that of genistein"},
      {"measurement": "activation of estrogen-responsive genes", "setting": "[5]", "value": "did not activate estrogen-responsive genes"}
    ]}
  ]
}
